Test results reported in US11332451B2, “RIP1 inhibitory compounds and methods for making and using the same” (priority 2018, dated 2022).

Test system: TNF-alpha induced hypothermia
Assay: acute hypothermia mouse model (TNF-alpha/zVAD-FMK induced hypothermia)
Type: in vivo, mice
Details: dose of 5 mg/kg, oral gavage
Description: In this example, an acute hypothermia mouse model assay was used to evaluate the ability of compounds disclosed herein to inhibit TNF-alpha induced hypothermia.
Female C57BL/6 mice are randomly grouped and weighed on Day −1. On the day of the study (Day 0), mice are administered vehicle or test article by oral gavage. Fifteen minutes after oral administration of test agents, each mouse is administered an intraperitoneal (IP) injection of solution containing recombinant human tumor necrosis factor alpha (TNF-a, 25.0 μg) and zVAD-FMK (200 μg). Body temperature is measured at 0 hours (before IP injections) and every hour via rectal probe temperature measuring device. Three (3) hours after IP injections of TNF-α and zVAD/FMK, mice are euthanized by CO2 asphyxiation and blood is collected via cardiac puncture. Serum and plasma are harvested for determination of cytokine and compound levels, respectively. Separate groups of mice (satellite mice) are included for the determination of compound levels in plasma at the time of administration of TNFa/zVAD-FMK.
(S)-5-benzyl-N-(5-methyl-4-oxo-2,3,4,5-tetrahydrobenzo[b][1,4]oxazepin-3-yl)-4H-1,2,4-triazole-3-carboxamide (WO 2014/125444), having a structure as illustrated below, was used as a comparative compound and was examined using a similar protocol as described by WO 2014/125444.

## CN1C(=O)[C@@H](NC(=O)c2n[nH]c(Cc3ccccc3)n2)COc2ccc(C#CC(C)(C)O)cc21 [Compound I-30, (S)-5-benzyl-N-(7-(3-hydroxy-3-methylbut-1-yn-1-yl)-5-methyl-4-oxo-2,3,4,5-tetrahydrobenzo[b][1,4]oxazepin-3-yl)-1H-1,2,4-triazole-3-carboxamide]
  inhibition of TNF-alpha induced hypothermia: greater than 85%
